Assay [1] concerns the target T1, human CD38 (Homo sapiens, UniProt P28907).
T1 sequence (P28907 1-300): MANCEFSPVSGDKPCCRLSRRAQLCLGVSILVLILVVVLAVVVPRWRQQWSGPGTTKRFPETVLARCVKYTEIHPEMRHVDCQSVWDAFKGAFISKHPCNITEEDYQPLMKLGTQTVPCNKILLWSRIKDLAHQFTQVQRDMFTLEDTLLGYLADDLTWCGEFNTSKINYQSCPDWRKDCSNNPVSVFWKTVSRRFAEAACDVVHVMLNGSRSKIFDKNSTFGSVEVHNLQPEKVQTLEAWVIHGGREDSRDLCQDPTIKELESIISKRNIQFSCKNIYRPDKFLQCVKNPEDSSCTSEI
In words: human recombinant CD38 enzyme assay (hydrolysis of NAD+). It is filed as biochemical. The conditions noted are these: human recombinant CD38, 0.4 nM enzyme, 62.5 μM NAD+; read-out: hCD38 BioChem IC50. An outline of the steps:
(§1)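 Cell-free recombinant enzyme, NAD+ substrate, 60 min at RT. Stop/detect: ethanol/ADH plus semicarbazide and a CD38 inhibitor (15 min), then NaOH, then resazurin/diaphorase (15 min). Remaining NAD+ read as resorufin fluorescence, Ex/Em 540/590 nm. Inhibition fitted from dose responses.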

Assay [2] addresses T2, mouse CD38 (Mus musculus, UniProt P56528).
T2 sequence (P56528 1-304): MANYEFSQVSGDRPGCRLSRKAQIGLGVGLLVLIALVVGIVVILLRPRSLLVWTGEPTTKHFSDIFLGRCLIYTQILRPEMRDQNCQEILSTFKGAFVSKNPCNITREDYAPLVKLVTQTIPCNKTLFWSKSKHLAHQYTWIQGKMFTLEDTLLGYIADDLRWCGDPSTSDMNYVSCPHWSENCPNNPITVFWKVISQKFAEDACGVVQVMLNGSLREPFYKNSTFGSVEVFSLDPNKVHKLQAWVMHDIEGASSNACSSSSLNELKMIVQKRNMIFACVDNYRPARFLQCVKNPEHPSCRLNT
In words: mouse recombinant CD38 enzyme assay (hydrolysis of NAD+). The assay is classed as biochemical. The conditions noted are these: read-out: mCD38 BioChem IC50. An outline of the steps: as §1

Assay [3] has as its target T3, endogenous CD38 in HL60 cells (Homo sapiens, UniProt P28907).
T3 construct: endogenous in cells; host or cells: HL60 (leukemic cells, treated with all-trans retinoic acid)
T3 sequence (P28907 1-300): T1 sequence (P28907 1-300)
Nature of the assay: cellular CD38 assay in HL60 cells (cellular NAD levels). It is filed as cell-based. The settings on record: all-trans retinoic acid, 24 hours, read-out: hCD38 HL60 ATRA NAD Cell Diaphorase IC50. As to the method:
The compounds described herein were also assayed for their ability to inhibit the endogenous CD38 in a native cellular environment in the cellular CD38 assay, which measures the ability of the compound to modulate cellular NAD levels. […] The assays were initiated by plating 20 μL of HL60 cells in culture medium, at a density of 20000 cells per well to a 384-well Corning™ Multiwell Plates. Compounds in DMSO were added to the plates in a volume of 120 nL using the Labcyte Echo Liquid Handlers. […] The plates are then incubated for 24 hours. 50 μL of a readout-solution containing 0.2 U/mL Diaphorase enzyme, 40 uM resazurin, 10 uM FMN, 0.8 U/mL Alcohol dehydrogenase, 3% ethanol, 0.4 mg/mL bovine serum albumin, 0.2% Triton X-100 in 100 mM Tris-HCl, 30 mM EDTA, pH 8.4. The plates were read for fluorescence (Excitation/Emission=540 nm/590 nm) using an EnVision plate reader after 60 mins of incubation at ambient temperature. Note that, in Table 5, the “Compound No” corresponds to the compound numbers in Table 1.

The values below come from patent US20230116972A1, “CD38 MODULATORS AND METHODS OF USE THEREOF” (Cytokinetics, Inc., priority 2021, published 2023).

By IC50 is commonly meant the midpoint of a concentration-inhibition curve.

For `CO[C@H]1CC[C@H](NC(=O)c2nc(C)cc(-n3ccnc3)n2)CC1` [Compound 207, 4-(1H-imidazol-1-yl)-N-((1r,4r)-4-methoxycyclohexyl)-6-methylpyrimidine-2-carboxamide], the IC50 in assay [1] was 24.8 nM; in assay [2], 7.2 nM; in assay [3] it was 3690 nM.

Regarding `O=C(N[C@H]1C[C@H](Oc2ccccc2)C1)c1nccc(-n2ccnc2)n1` [Compound 219, 4-(1H-imidazol-1-yl)-N-((1r,3r)-3-phenoxycyclobutyl)pyrimidine-2-carboxamide], the IC50 worked out at 361 nM in assay [1], 99 nM in assay [2] and 10800 nM in assay [3].

Take `O=C(Nc1ccc(C(F)(F)F)nc1)c1nc(-n2ccnc2)ccc1F` [Compound 42, 3-fluoro-6-(1H-imidazol-1-yl)-N-(6-(trifluoromethyl)pyridin-3-yl)picolinamide]: the IC50 amounted to 9 nM in assay [1], 8 nM in assay [2] and 903 nM in assay [3].

Consider `Cn1cncc1-c1nc(C(=O)N[C@H]2C[C@H](C(C)(C)O)C2)cc(C2CCOCC2)n1` [Compound 283, N-((1r,3r)-3-(2-hydroxypropan-2-yl)cyclobutyl)-2-(1-methyl-1H-imidazol-5-yl)-6-(tetrahydro-2H-pyran-4-yl)pyrimidine-4-carboxamide], for which the IC50 in assay [1] was 18.4 nM; in assay [2], 4.3 nM; in assay [3], 5690 nM.

For `Cn1cncc1-c1nc(C(=O)NC2CC3(COC3)C2)cc(C2CCC(F)(F)CC2)n1` [Compound 286, 6-(4,4-difluorocyclohexyl)-2-(1-methyl-1H-imidazol-5-yl)-N-(2-oxaspiro[3.3]heptan-6-yl)pyrimidine-4-carboxamide], the IC50 amounted to 8.1 nM in assay [1], 1.2 nM in assay [2] and 3730 nM in assay [3].

For `O=C(Nc1ccc(F)c(F)c1)c1cccc(-n2ccnc2)n1` [Compound 34, N-(3,4-difluorophenyl)-6-(1H-imidazol-1-yl)picolinamide], the IC50 in assay [1] is 4 nM; in assay [2], 6 nM; in assay [3] it was 509 nM.

On to `Cn1cncc1-c1nc(C(=O)N[C@H]2CCc3c(F)cccc32)cc(C2CCOCC2)n1` [Compound 228, (S)-N-(4-fluoro-2,3-dihydro-1H-inden-1-yl)-2-(1-methyl-1H-imidazol-5-yl)-6-(tetrahydro-2H-pyran-4-yl)pyrimidine-4-carboxamide], for which the 50% inhibitory concentration (IC50) came to 16.2 nM in assay [1], 4.7 nM in assay [2] and 3880 nM in assay [3].

On to `Cn1cncc1-c1ccnc(C(=O)N[C@H]2CC[C@H](OC(F)F)CC2)n1` [Compound 275, N-((1r,4r)-4-(difluoromethoxy)cyclohexyl)-4-(1-methyl-1H-imidazol-5-yl)pyrimidine-2-carboxamide], for which the results for the IC50 in assay [1], in assay [2] and in assay [3] were 31.5 nM, 15.4 nM and 2210 nM, respectively.

In the case of `Cn1cncc1-c1nc(C(=O)N[C@H]2CC[C@H](OC(F)F)CC2)cc(C2(C)COC2)n1` [Compound 311, N-((1r,4r)-4-(difluoromethoxy)cyclohexyl)-2-(1-methyl-1H-imidazol-5-yl)-6-(3-methyloxetan-3-yl)pyrimidine-4-carboxamide], the values for the IC50 in assay [1], in assay [2] and in assay [3] were 13.5 nM, 3.8 nM and 2150 nM, respectively.

In the case of `COCCO[C@H]1CC[C@H](NC(=O)c2ccc(F)c(-n3ccnc3)n2)CC1` [Compound 54, 5-fluoro-6-(1H-imidazol-1-yl)-N-(4-(2-methoxyethoxy)cyclohexyl)picolinamide], the IC50 in assay [1] was found to be 189 nM; in assay [2], 38 nM; in assay [3], 8280 nM.

Consider `COc1cc(-c2cncn2C)nc(C(=O)N[C@H]2CC[C@H](OC)CC2)n1` [Compound 192, 4-Methoxy-N-((1r,4r)-4-methoxycyclohexyl)-6-(1-methyl-1H-imidazol-5-yl)pyrimidine-2-carboxamide], for which the results for the IC50 in assay [1], in assay [2] and in assay [3] were 46.1 nM, 5.5 nM and 3760 nM, respectively.

Turning to `Cn1cncc1-c1nc(C(=O)N[C@H]2CC[C@H](C)CC2)cc(C(F)(F)F)n1` [Compound 153, 2-(1-methyl-1H-imidazol-5-yl)-N-((1r,4r)-4-methylcyclohexyl)-6-(trifluoromethyl)pyrimidine-4-carboxamide], the IC50 in assay [1] turned out to be 25 nM; in assay [2], 2 nM; in assay [3] it was 3130 nM.

For the compound `Cn1cncc1-c1nccc(C(=O)N[C@H]2CC[C@H](C(F)(F)F)CC2)n1` [Compound 83, 2-(1-methyl-1H-imidazol-5-yl)-N-((1r,4r)-4-(trifluoromethyl)cyclohexyl)pyrimidine-4-carboxamide], the IC50 in assay [1] came out at 11 nM; in assay [2] it was 6 nM; in assay [3] it was 2770 nM.

For the compound `O=C(Nc1ccc(C(F)F)nc1)c1cc(C2CCOCC2)nc(-n2ccnc2)n1` [Compound 195, N-(6-(difluoromethyl)pyridin-3-yl)-2-(1H-imidazol-1-yl)-6-(tetrahydro-2H-pyran-4-yl)pyrimidine-4-carboxamide], the IC50 stood at 14.6 nM in assay [1], 9.9 nM in assay [2] and 1580 nM in assay [3].

For the compound `CO[C@H]1CC[C@H](NC(=O)c2nc(-n3ccnc3)ccc2C)CC1` [Compound 100, 6-(1H-imidazol-1-yl)-N-(4-methoxycyclohexyl)-3-methylpicolinamide], the IC50 in assay [1] was 263 nM; in assay [2] it was 61 nM; in assay [3] it was 6200 nM.

Regarding `O=C(N[C@H]1C[C@H](c2ccnc(C(F)(F)F)c2)C1)c1nccc(-n2ccnc2)n1` [Compound 268, 4-(1H-imidazol-1-yl)-N-((1r,3r)-3-(2-(trifluoromethyl)pyridin-4-yl)cyclobutyl)pyrimidine-2-carboxamide], the 50% inhibitory concentration (IC50) was found to be 35.4 nM in assay [1], 96.3 nM in assay [2] and 1400 nM in assay [3].

In the case of `Cn1cncc1-c1ccnc(C(=O)N[C@H]2C[C@H](c3ccc(C(F)(F)F)nc3)C2)n1` [Compound 273, 4-(1-methyl-1H-imidazol-5-yl)-N-((1r,3r)-3-(6-(trifluoromethyl)pyridin-3-yl)cyclobutyl)pyrimidine-2-carboxamide], the results for the IC50 in assay [1], in assay [2] and in assay [3] were 71.9 nM, 53.7 nM and 2470 nM, respectively.

`CC(C)c1cc(C(=O)N[C@H]2CC[C@H](C(F)F)CC2)nc(-n2ccnc2)n1` [Compound 168, N-((1r,4r)-4-(difluoromethyl)cyclohexyl)-2-(1H-imidazol-1-yl)-6-isopropylpyrimidine-4-carboxamide]: the 50% inhibitory concentration (IC50) in assay [1] was 313 nM; in assay [2], 47 nM; in assay [3], 8650 nM.

`Cn1cncc1-c1ccnc(C(=O)N[C@H]2CC[C@H](NCC(F)(F)F)CC2)n1` [Compound 264, 4-(1-methyl-1H-imidazol-5-yl)-N-((1r,4r)-4-((2,2,2-trifluoroethyl)amino)cyclohexyl)pyrimidine-2-carboxamide]: the IC50 turned out to be 40.9 nM in assay [1], 15.3 nM in assay [2] and 2100 nM in assay [3].

Consider `O=C(N[C@H]1C[C@H](c2ccccc2)C1)c1nccc(-n2ccnc2)n1` [Compound 211, 4-(1H-imidazol-1-yl)-N-((1r,3r)-3-phenylcyclobutyl)pyrimidine-2-carboxamide], for which the IC50 was 46.2 nM in assay [1], 29.8 nM in assay [2] and 2010 nM in assay [3].

`O=C(N[C@H]1CC[C@H](C(F)F)CC1)c1ccnc(-n2ccnc2)n1` [Compound 68, N-((1r,4r)-4-(difluoromethyl)cyclohexyl)-2-(1H-imidazol-1-yl)pyrimidine-4-carboxamide]: the values for the half-inhibitory concentration (IC50) in assay [1], in assay [2] and in assay [3] were 16 nM, 6 nM and 1320 nM, respectively.

Turning to `CCO[C@H]1CC[C@H](NC(=O)c2nccc(-n3ccnc3)n2)CC1` [Compound 258, N-((1r,4r)-4-ethoxycyclohexyl)-4-(1H-imidazol-1-yl)pyrimidine-2-carboxamide], the IC50 in assay [1] stood at 71.6 nM; in assay [2] it was 36.4 nM; in assay [3], 5580 nM.
